Test results reported in US9212182B2, “Bicyclic sulfonamide compounds as sodium channel inhibitors” (AMGEN INC., priority 2013, dated 2015).

These compounds were tested against Nav 1.7 (Homo sapiens (Human), UniProt Q15858) (assay: in-vitro Nav 1.7 PX (IC50)). Details: not given.
Sequence of Nav 1.7 (Q15858 whole entry): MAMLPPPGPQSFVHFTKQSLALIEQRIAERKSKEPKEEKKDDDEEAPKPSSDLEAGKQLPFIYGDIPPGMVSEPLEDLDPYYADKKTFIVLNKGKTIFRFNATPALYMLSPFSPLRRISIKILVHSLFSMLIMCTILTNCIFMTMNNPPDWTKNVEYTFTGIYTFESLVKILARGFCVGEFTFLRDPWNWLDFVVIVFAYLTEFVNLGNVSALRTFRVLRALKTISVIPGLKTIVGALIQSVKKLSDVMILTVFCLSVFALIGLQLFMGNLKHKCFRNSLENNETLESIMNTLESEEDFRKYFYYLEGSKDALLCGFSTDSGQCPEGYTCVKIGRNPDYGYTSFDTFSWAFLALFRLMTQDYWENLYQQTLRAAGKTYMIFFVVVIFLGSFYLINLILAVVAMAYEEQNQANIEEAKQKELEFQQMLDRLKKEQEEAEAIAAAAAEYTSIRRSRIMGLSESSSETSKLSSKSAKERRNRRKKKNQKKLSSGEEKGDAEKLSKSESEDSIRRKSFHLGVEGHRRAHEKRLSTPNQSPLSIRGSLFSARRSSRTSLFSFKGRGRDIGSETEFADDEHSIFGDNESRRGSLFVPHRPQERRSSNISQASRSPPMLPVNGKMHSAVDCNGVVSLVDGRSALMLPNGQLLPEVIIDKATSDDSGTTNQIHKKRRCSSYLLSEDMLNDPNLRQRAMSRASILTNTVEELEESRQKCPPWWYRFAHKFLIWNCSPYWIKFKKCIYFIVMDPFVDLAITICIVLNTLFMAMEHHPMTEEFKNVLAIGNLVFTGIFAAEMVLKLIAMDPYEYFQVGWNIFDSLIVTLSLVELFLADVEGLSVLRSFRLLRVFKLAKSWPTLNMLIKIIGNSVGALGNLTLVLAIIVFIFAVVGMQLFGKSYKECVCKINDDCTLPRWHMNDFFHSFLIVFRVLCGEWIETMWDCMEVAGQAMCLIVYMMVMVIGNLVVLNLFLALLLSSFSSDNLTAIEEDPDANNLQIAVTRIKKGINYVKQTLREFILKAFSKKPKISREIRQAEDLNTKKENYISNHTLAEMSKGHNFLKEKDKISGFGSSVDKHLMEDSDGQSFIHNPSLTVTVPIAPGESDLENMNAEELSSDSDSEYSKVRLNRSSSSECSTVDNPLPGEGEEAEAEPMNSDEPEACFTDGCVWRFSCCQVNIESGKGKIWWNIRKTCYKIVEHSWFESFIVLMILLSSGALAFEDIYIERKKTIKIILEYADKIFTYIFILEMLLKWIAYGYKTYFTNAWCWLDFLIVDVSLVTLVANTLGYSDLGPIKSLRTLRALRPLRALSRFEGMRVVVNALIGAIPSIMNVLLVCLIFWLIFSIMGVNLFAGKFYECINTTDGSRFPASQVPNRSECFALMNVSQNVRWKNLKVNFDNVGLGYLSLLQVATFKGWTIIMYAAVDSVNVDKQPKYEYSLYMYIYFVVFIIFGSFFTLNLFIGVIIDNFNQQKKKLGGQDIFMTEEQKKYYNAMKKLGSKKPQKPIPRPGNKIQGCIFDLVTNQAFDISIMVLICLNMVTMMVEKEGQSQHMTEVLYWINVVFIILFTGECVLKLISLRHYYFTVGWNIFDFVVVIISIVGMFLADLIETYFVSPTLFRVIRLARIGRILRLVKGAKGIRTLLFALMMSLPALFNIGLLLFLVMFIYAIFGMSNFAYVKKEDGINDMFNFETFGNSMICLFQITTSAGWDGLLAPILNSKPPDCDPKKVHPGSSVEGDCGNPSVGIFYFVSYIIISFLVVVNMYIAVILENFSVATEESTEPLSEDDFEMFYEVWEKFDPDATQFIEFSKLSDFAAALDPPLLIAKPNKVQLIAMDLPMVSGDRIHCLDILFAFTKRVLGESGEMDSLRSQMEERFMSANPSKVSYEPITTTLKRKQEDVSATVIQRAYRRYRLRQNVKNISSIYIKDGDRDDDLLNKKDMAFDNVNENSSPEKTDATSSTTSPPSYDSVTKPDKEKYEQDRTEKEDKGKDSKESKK
Assay type: cell-based
Compound `COc1cc(-c2cc(F)cc(Cl)c2)c(F)cc1-n1c(=O)ccc2cc(S(=O)(=O)Nc3ncc(F)cn3)ccc21` (atropisomer, axis not shown; (P)) [Example 544, (P)-1-(3′-chloro-2,5′-difluoro-5-methoxy-4-biphenylyl)-N-(5-fluoro-2-pyrimidinyl)-2-oxo-1,2-dihydro-6-quinolinesulfonamide] has an IC50 of 14 nM. For `COc1cc(-c2cccc(F)c2)c(Cl)cc1-n1c(=O)ccc2cc(S(=O)(=O)Nc3ccncn3)ccc21` (atropisomer, axis not shown; (M)) [Example 466, (M)-1-(2-chloro-3′-fluoro-5-methoxy-[1,1′-biphenyl]-4-yl)-2-oxo-N-(pyrimidin-4-yl)-1,2-dihydroquinoline-6-sulfonamide], the IC50 was 4320 nM. `COc1cc(-c2ccc(Cl)c(C)c2)ccc1-n1c(=O)cnc2cc(S(=O)(=O)Nc3ccon3)ccc21` [Example 1195, 1-(4′-chloro-3-methoxy-3′-methyl-4-biphenylyl)-N-3-isoxazolyl-2-oxo-1,2-dihydro-6-quinoxalinesulfonamide] showed an IC50 of 54 nM. With `COc1ccc(-c2cccc(F)c2)cc1-n1c(=O)ccc2cc(S(=O)(=O)Nc3ccon3)ccc21` [Example 482, 1-(3′-fluoro-4-methoxy-3-biphenylyl)-N-3-isoxazolyl-2-oxo-1,2-dihydro-6-quinolinesulfonamide] the IC50 was 80 nM. Compound `COc1cc(-c2cc(C)cc(Cl)c2)ccc1-n1c(=O)ccc2cc(S(=O)(=O)Nc3ccon3)ccc21` (atropisomer, axis not shown; (P)) [Example 585, (P)-1-(3′-chloro-3-methoxy-5′-methyl-4-biphenylyl)-N-3-isoxazolyl-2-oxo-1,2-dihydro-6-quinolinesulfonamide] has an IC50 of 8 nM. `COc1cc(-c2ccc(-n3c(=O)cnc4cc(S(=O)(=O)Nc5ccon5)ccc43)c(OC)c2)ccc1C` [Example 1197, 1-(3,3′-dimethoxy-4′-methyl-4-biphenylyl)-N-3-isoxazolyl-2-oxo-1,2-dihydro-6-quinoxalinesulfonamide] gave an IC50 of 146 nM.

Same assay, conditions: in-vitro Nav 1.7 PX data
Work on `COc1cc(Cl)cc(-c2cc(OC)c(-n3c(=O)ccc4cc(S(=O)(=O)Nc5ncccn5)ccc43)cc2F)c1` [Example 924, 1-(3′-chloro-2-fluoro-5,5′-dimethoxy-4-biphenylyl)-2-oxo-N-2-pyrimidinyl-1,2-dihydro-6-quinolinesulfonamide] yielded an IC50 of 14 nM. Compound `COc1cc(-c2cc(C)cc(C)c2)c(F)cc1-n1c(=O)ccc2cc(S(=O)(=O)Nc3ccon3)ccc21` [Example 706, 1-(2-fluoro-5-methoxy-3′,5′-dimethyl-4-biphenylyl)-N-3-isoxazolyl-2-oxo-1,2-dihydro-6-quinolinesulfonamide] has an IC50 of 14 nM. With `COc1cc(-c2cc(OC)c(-n3c(=O)ccc4cc(S(=O)(=O)Nc5ccnc(C)n5)ccc43)cc2F)ccc1F` [Example 1008, 1-(2,4′-difluoro-3′,5-dimethoxy-4-biphenylyl)-N-(2-methyl-4-pyrimidinyl)-2-oxo-1,2-dihydro-6-quinolinesulfonamide] the IC50 was 210 nM. With `COc1cc(-c2ccc(C(F)(F)F)nc2)c(F)cc1-n1c(=O)ccc2cc(S(=O)(=O)Nc3ccon3)ccc21` [Example 761, 1-(5-fluoro-2-methoxy-4-(6-(trifluoromethyl)-3-pyridinyl)phenyl)-N-3-isoxazolyl-2-oxo-1,2-dihydro-6-quinolinesulfonamide] the IC50 was 120 nM. `COc1nc(OCC2CCCC2)c(Cl)cc1-n1c(=O)ccc2cc(S(=O)(=O)Nc3ccon3)ccc21` [Example 824, 1-(5-chloro-6-(cyclopentylmethoxy)-2-methoxy-3-pyridinyl)-N-3-isoxazolyl-2-oxo-1,2-dihydro-6-quinolinesulfonamide] was tested, and the IC50 was 217 nM. `COc1cc(-c2cccc(OC)c2F)ccc1-n1c(=O)ccc2cc(S(=O)(=O)Nc3ccon3)ccc21` [Example 785, 1-(2′-fluoro-3,3′-dimethoxy-4-biphenylyl)-N-3-isoxazolyl-2-oxo-1,2-dihydro-6-quinolinesulfonamide] showed an IC50 of 66 nM. Work on `COc1cc(C2CCCCC2)c(F)cc1-n1c(=O)ccc2cc(S(=O)(=O)Nc3ccon3)ccc21` [Example 1077, 1-(4-cyclohexyl-5-fluoro-2-methoxyphenyl)-N-3-isoxazolyl-2-oxo-1,2-dihydro-6-quinolinesulfonamide] yielded an IC50 of 38 nM. Work on `COc1cc(-c2cc(C)cc(C)c2)ccc1-n1c(=O)ccc2cc(S(=O)(=O)Nc3ccon3)ccc21` [Example 1016, N-3-isoxazolyl-1-(3-methoxy-3′,5′-dimethyl-4-biphenylyl)-2-oxo-1,2-dihydro-6-quinolinesulfonamide] yielded an IC50 of 11 nM. `COc1cc(-c2ccc(F)cc2)c(F)cc1-n1c(=O)ccc2cc(S(=O)(=O)Nc3cccnn3)ccc21` [Example 770, 1-(2,4′-difluoro-5-methoxy-4-biphenylyl)-2-oxo-N-3-pyridazinyl-1,2-dihydro-6-quinolinesulfonamide] was tested, and the IC50 was 33 nM. In the case of `COc1cc(-c2ccc(OC(F)(F)F)cc2)c(F)cc1-n1c(=O)ccc2cc(S(=O)(=O)Nc3ccon3)ccc21` [Example 760, 1-(2-fluoro-5-methoxy-4′-(trifluoromethoxy)-4-biphenylyl)-N-3-isoxazolyl-2-oxo-1,2-dihydro-6-quinolinesulfonamide], the IC50 is reported as 15 nM. With `COc1cc(F)cc(-c2ccc(OC)c(-n3c(=O)ccc4cc(S(=O)(=O)Nc5ccon5)ccc43)c2)c1` [Example 838, 1-(3′-fluoro-4,5′-dimethoxy-3-biphenylyl)-N-3-isoxazolyl-2-oxo-1,2-dihydro-6-quinolinesulfonamide] the IC50 was 69 nM. Work on `COc1cc(-c2cnc(OC)c(Cl)c2)ccc1-n1c(=O)ccc2cc(S(=O)(=O)Nc3ccon3)ccc21` [Example 814, 1-(4-(5-chloro-6-methoxy-3-pyridinyl)-2-methoxyphenyl)-N-3-isoxazolyl-2-oxo-1,2-dihydro-6-quinolinesulfonamide] yielded an IC50 of 35 nM. With `COc1cc(CC2CCCCC2)c(F)cc1-n1c(=O)ccc2cc(S(=O)(=O)Nc3cccnn3)ccc21` [Example 1112, 1-(4-(cyclohexylmethyl)-5-fluoro-2-methoxyphenyl)-2-oxo-N-3-pyridazinyl-1,2-dihydro-6-quinolinesulfonamide] the IC50 was 25 nM. For `COc1cc(-c2cc(C)cnc2OC)c(F)cc1-n1c(=O)ccc2cc(S(=O)(=O)Nc3ccon3)ccc21` [Example 715, 1-(5-fluoro-2-methoxy-4-(2-methoxy-5-methyl-3-pyridinyl)phenyl)-N-3-isoxazolyl-2-oxo-1,2-dihydro-6-quinolinesulfonamide], the IC50 was 151 nM. `COc1ccc(-c2ccc(F)c(C)c2)cc1-n1c(=O)ccc2cc(S(=O)(=O)Nc3ccon3)ccc21` [Example 878, 1-(4′-fluoro-4-methoxy-3′-methyl-3-biphenylyl)-N-3-isoxazolyl-2-oxo-1,2-dihydro-6-quinolinesulfonamide] gave an IC50 of 21 nM. `Cc1cc(-c2cc(C)c(-n3c(=O)ccc4cc(S(=O)(=O)Nc5ncccn5)ccc43)cc2F)ccc1Cl` (atropisomer, axis not shown; (P)) [Example 649] gave an IC50 of 49 nM. For `COc1cc(-c2ccc(F)c(F)c2)ccc1-n1c(=O)ccc2cc(S(=O)(=O)Nc3cccnn3)ccc21` [Example 896, 1-(3′,4′-difluoro-3-methoxy-4-biphenylyl)-2-oxo-N-3-pyridazinyl-1,2-dihydro-6-quinolinesulfonamide], the IC50 was 47 nM. `COc1cc(-c2ccc(F)cc2)c(F)cc1-n1c(=O)ccc2cc(S(=O)(=O)Nc3ccnc(C)n3)ccc21` [Example 773, 1-(2,4′-difluoro-5-methoxy-4-biphenylyl)-N-(2-methyl-4-pyrimidinyl)-2-oxo-1,2-dihydro-6-quinolinesulfonamide] was tested, and the IC50 was 274 nM. For `COc1cc(-c2ccc(F)c(F)c2)c(F)cc1-n1c(=O)ccc2cc(S(=O)(=O)Nc3ncc(F)cn3)ccc21` [Example 937, N-(5-fluoro-2-pyrimidinyl)-2-oxo-1-(2,3′,4′-trifluoro-5-methoxy-4-biphenylyl)-1,2-dihydro-6-quinolinesulfonamide], the IC50 was 29 nM.

Same assay, conditions: in-vitro Nav 1.7 PX data (PatchXpress)
With `COc1cc(-c2ccccc2C(F)(F)F)ccc1-n1c(=O)ccc2cc(S(=O)(=O)Nc3ccon3)ccc21` [Example 1052, N-3-isoxazolyl-1-(3-methoxy-2′-(trifluoromethyl)-4-biphenylyl)-2-oxo-1,2-dihydro-6-quinolinesulfonamide] the IC50 was 54 nM.

Same assay, conditions: in-vitro Nav 1.7 PX data, Table 4
In the case of `COc1cc(-c2ccc(Cl)cc2)c(F)cc1-n1c(=O)ccc2cc(S(=O)(=O)Nc3ccc(F)cn3)ccc21` (atropisomer, axis not shown; (P)) [Example 1163, (P)-1-(4′-chloro-2-fluoro-5-methoxy-4-biphenylyl)-N-(5-fluoro-2-pyridinyl)-2-oxo-1,2-dihydro-6-quinolinesulfonamide], the IC50 is reported as 159 nM.

These compounds were tested against Nav 1.5 (Homo sapiens (Human), UniProt Q14524) (assay: in-vitro Nav 1.5 PX (IC50)). Details: read-out: Nav 1.5 PX IC50.
Sequence of Nav 1.5 (Q14524 whole entry): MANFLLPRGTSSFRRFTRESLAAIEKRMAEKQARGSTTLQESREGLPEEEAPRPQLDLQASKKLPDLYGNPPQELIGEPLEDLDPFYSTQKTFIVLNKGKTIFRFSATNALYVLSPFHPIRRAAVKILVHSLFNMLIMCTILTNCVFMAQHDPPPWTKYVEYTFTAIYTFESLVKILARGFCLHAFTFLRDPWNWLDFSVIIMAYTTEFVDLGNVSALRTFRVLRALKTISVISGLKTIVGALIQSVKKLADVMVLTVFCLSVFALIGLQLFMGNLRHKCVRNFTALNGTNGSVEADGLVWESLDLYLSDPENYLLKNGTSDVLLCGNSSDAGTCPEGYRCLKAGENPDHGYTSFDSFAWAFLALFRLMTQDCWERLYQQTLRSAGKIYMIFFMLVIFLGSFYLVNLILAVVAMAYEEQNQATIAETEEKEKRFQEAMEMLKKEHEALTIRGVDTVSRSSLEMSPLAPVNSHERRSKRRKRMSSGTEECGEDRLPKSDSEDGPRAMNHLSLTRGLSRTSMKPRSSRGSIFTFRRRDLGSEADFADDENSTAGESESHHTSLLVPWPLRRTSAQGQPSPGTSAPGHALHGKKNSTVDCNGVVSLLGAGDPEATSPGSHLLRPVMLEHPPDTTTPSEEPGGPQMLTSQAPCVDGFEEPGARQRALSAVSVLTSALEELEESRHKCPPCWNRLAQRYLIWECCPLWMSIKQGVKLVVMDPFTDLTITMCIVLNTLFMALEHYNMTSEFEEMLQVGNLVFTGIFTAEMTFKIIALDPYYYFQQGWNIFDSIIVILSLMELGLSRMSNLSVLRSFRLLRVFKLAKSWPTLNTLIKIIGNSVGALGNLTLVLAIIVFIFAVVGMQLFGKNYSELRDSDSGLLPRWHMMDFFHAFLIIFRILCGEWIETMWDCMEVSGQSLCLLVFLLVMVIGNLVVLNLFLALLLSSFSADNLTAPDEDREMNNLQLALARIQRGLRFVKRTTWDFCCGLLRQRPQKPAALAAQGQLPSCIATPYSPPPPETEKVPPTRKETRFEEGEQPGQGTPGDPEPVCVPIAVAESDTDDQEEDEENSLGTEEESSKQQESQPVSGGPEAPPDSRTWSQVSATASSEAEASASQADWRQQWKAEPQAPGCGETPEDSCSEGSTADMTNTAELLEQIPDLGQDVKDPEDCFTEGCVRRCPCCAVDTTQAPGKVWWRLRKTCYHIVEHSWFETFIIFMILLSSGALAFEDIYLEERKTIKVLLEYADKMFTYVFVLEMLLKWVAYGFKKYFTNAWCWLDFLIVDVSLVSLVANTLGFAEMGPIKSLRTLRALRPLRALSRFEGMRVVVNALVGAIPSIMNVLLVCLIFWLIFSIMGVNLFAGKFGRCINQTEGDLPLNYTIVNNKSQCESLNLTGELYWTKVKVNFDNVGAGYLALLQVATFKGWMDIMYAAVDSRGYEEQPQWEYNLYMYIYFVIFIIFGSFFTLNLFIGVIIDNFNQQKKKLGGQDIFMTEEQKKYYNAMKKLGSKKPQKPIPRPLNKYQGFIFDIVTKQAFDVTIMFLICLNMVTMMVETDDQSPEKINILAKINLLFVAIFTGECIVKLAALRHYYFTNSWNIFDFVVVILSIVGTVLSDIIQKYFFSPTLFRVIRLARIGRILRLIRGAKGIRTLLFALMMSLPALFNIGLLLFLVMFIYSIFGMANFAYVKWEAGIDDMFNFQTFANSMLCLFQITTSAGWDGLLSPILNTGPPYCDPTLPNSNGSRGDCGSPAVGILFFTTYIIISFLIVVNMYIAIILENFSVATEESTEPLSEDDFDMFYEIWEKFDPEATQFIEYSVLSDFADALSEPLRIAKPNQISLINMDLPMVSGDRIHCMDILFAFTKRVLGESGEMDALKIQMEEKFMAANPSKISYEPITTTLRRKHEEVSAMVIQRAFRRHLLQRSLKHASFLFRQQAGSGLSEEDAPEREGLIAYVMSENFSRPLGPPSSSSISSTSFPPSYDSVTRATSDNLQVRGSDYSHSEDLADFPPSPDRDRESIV
`COc1cc(-c2cccc(F)c2)c(Cl)cc1-n1c(=O)ccc2cc(S(=O)(=O)Nc3ccncn3)ccc21` (atropisomer, axis not shown; (P)) [Example 465, (P)-1-(2-chloro-3′-fluoro-5-methoxy-[1,1′-biphenyl]-4-yl)-2-oxo-N-(pyrimidin-4-yl)-1,2-dihydroquinoline-6-sulfonamide] was tested, and the IC50 was > 30000 nM.

Same assay, conditions: read-out: Nav 1.5 PX IC50; in-vitro Nav 1.5 PX data
In the case of `COc1cc(Cl)cc(-c2cc(OC)c(-n3c(=O)ccc4cc(S(=O)(=O)Nc5ncccn5)ccc43)cc2F)c1` [Example 924, 1-(3′-chloro-2-fluoro-5,5′-dimethoxy-4-biphenylyl)-2-oxo-N-2-pyrimidinyl-1,2-dihydro-6-quinolinesulfonamide], the IC50 is reported as > 10000 nM.

Same assay, conditions: read-out: Nav 1.5 PX IC50; in-vitro Nav 1.5 PX data (PatchXpress)
For `COc1cc(-c2cc(OC)c(-n3c(=O)ccc4cc(S(=O)(=O)Nc5ncccn5)ccc43)cc2F)ccc1Cl` (atropisomer, axis not shown; (P)) [Example 685, (P)-1-(4′-chloro-2-fluoro-3′,5-dimethoxy-4-biphenylyl)-2-oxo-N-2-pyrimidinyl-1,2-dihydro-6-quinolinesulfonamide], the IC50 was > 10000 nM. For `COc1cc(-c2cc(OC)c(-n3c(=O)ccc4cc(S(=O)(=O)Nc5cccnn5)ccc43)cc2F)ccc1Cl` (atropisomer, axis not shown; (P)) [Example 628, (P)-1-(4′-chloro-2-fluoro-3′,5-dimethoxy-4-biphenylyl)-2-oxo-N-3-pyridazinyl-1,2-dihydro-6-quinolinesulfonamide], the IC50 was > 10000 nM.
